The text below walks through data of patent US11286242B2 (priority 2018, dated 2022).

The test system of the first assay is Phakopsora pachyrhizi. Nature of the assay: Phakopsora pachyrhizi test in soybean, preventive spray. In kind it is in vivo. The settings on record: preventive spray on soybean plants, inoculated one day after treatment, greenhouse 25° C., 90% relative humidity, read-out: control (efficacy, disease severity rating) compared to the untreated check. On the procedure: Example 8: Phakopsora pachyrhizi Test in Soybean
Compounds were dissolved in 2% DMSO/Acetone & then mixed with water to the calibrated spray volume of 50 mL and poured into the spray bottles for further applications.
To test the preventive activity of compounds, healthy young soybean plants raised in the greenhouse were sprayed with active compound preparation at the stated application rates inside the spray cabinets using hallowcone nozzles. One day after treatment, the plants were inoculated with spore suspension containing 2.1×10^6 Phakopsora pachyrhizi inoculum. The inoculated plants were then kept in greenhouse chamber at 25° C. temperature & 90% relative humidity for disease expression.
A visual assessment of compound's performance was carried out by rating the disease severity (0-100% scale) on treated plants on 3, 7, 10 & 15 days after application. Efficacy (% control) of the compounds was calculated by comparing the disease rating in the treatment with the one of the untreated control. The sprayed plants were also assessed for compound's plant compatibility by recording symptoms like necrosis, chlorosis & stunting.
Take `CS(=O)(=NC(=O)c1ccc(-c2noc(C(F)(F)F)n2)cc1)c1ccccc1F` (stereo not drawn) [Compound 3, N-((2-fluorophenyl)(methyl)(oxo)-λ^6-sulfanylidene)-4-(5-(trifluoromethyl)-1,2,4-oxadiazol-3-yl)benzamide]: the pest or weed control at 500 ppm was above 90%.
On the same count and under the same terms, the same measure for `CS(=O)(=Nc1ccc(-c2noc(C(F)(F)F)n2)cc1)c1ccc(C(F)(F)F)cc1` (stereo not drawn) [Compound 19, methyl((4-(5-(trifluoromethyl)-1,2,4-oxadiazol-3-yl)phenyl)imino)(4-(trifluoromethyl)phenyl)-λ^6-sulfanone]: above 90%.
Still for that read-out and setting: with `CS(=O)(=NCc1ccc(-c2noc(C(F)(F)F)n2)cc1)c1ccccn1` (stereo not drawn) [Compound 27, methyl(pyridin-2-yl)((4-(5-(trifluoromethyl)-1,2,4-oxadiazol-3-yl)benzyl)imino)-λ^6-sulfanone] the figure was above 90%.

Another assay relates to Alternaria solani. Nature of the assay: Alternaria solani (early blight of tomato/potato) radial mycelial growth on Potato Dextrose Agar. The settings on record: 168 h, Potato Dextrose Agar, 25° C., 60% relative humidity, seven days, read-out: control compared to the untreated check. In kind it is cell-based. On the procedure:
Example 4: Alternaria solani (Early Blight of Tomato/Potato)
Compounds were dissolved in 0.3% DMSO & then added to Potato Dextrose Agar medium just prior to dispensing it into petri dishes. 5 mL medium with compound in the desired concentration was dispensed into 60 mm sterile petri-plates. After solidification each plate was seeded with 5 mm size mycelial disc taken form periphery of actively growing virulent culture plate. Plates were incubated in growth chambers at 25° C. temperature and 60% relative humidity for seven days and radial growth was measured.
For the compound `CS(=O)(Cc1cccc(F)c1F)=NC(=O)c1ccc(-c2noc(C(F)(F)F)n2)cc1` (stereo not drawn) [Compound 33, N-((2,3-difluorobenzyl)(methyl)(oxo)-λ^6-sulfaneylidene)-4-(5-(trifluoromethyl)-1,2,4-oxadiazol-3-yl)benzamide], the inhibition of growth at 300 ppm is above 70%.

In a further assay the test system is Pyricularia oryzae. The assay can be described thus: microbe, parasite or virus in culture. Particulars: 168 h, read-out: control compared to the untreated check. The assay is classed as cell-based.
In the case of `CS(=O)(=NC(=O)c1ccc(-c2noc(C(F)(F)F)n2)cc1)c1ccccc1F` (stereo not drawn) [Compound 3, N-((2-fluorophenyl)(methyl)(oxo)-λ^6-sulfanylidene)-4-(5-(trifluoromethyl)-1,2,4-oxadiazol-3-yl)benzamide], the inhibition of growth at 300 ppm was above 70%.
Turning to `CS(=O)(=Nc1ccc(-c2noc(C(F)(F)F)n2)cc1)c1ccc(C(F)(F)F)cc1` (stereo not drawn) [Compound 19, methyl((4-(5-(trifluoromethyl)-1,2,4-oxadiazol-3-yl)phenyl)imino)(4-(trifluoromethyl)phenyl)-λ^6-sulfanone], the inhibition of growth at 300 ppm is above 70%.
With `CS(=O)(=NCc1ccc(-c2noc(C(F)(F)F)n2)cc1)c1ccccn1` (stereo not drawn) [Compound 27, methyl(pyridin-2-yl)((4-(5-(trifluoromethyl)-1,2,4-oxadiazol-3-yl)benzyl)imino)-λ^6-sulfanone], the inhibition of growth at 300 ppm is above 70%.
On the same count and under the same terms, the same measure for `CS(=O)(=NCc1ccc(-c2noc(C(F)(F)F)n2)cc1)c1ccccc1F` (stereo not drawn) [Compound 29, (2-fluorophenyl)(methyl)((4-(5-(trifluoromethyl)-1,2,4-oxadiazol-3-yl)benzyl)imino)-λ^6-sulfanone]: above 70%; for `CS(=O)(=Nc1ccc(-c2noc(C(F)(F)F)n2)cc1)c1ccc(F)c(F)c1` (stereo not drawn) [Compound 97, (3,4-difluorophenyl)(methyl)((4-(5-(trifluoromethyl)-1,2,4-oxadiazol-3-yl)phenyl)imino)-λ^6-sulfanone]: above 70%; for `COc1cccc(S(C)(=O)=Nc2ccc(-c3noc(C(F)(F)F)n3)cc2)c1` (stereo not drawn) [Compound 106, (3-methoxyphenyl)(methyl)((4-(5-(trifluoromethyl)-1,2,4-oxadiazol-3-yl)phenyl)imino)-λ^6-sulfanone]: above 70%.
Still for that read-out and setting: the same measure for `Cc1cccc(S(C)(=O)=Nc2cccc(-c3noc(C(F)(F)F)n3)c2)c1` (stereo not drawn) [Compound 114, methyl(m-tolyl)((3-(5-(trifluoromethyl)-1,2,4-oxadiazol-3-yl)phenyl)imino)-λ^6-sulfanone]: above 70%; for `CS(=O)(=Nc1cccc(-c2noc(C(F)(F)F)n2)c1)c1ccccc1` (stereo not drawn) [Compound 122, methyl(phenyl)((3-(5-(trifluoromethyl)-1,2,4-oxadiazol-3-yl)phenyl)imino)-λ^6-sulfanone]: above 70%; for `CS(=O)(=Nc1ccc(-c2noc(C(F)(F)F)n2)nc1)c1ccc(C(F)(F)F)cc1` (stereo not drawn) [Compound 124, methyl((6-(5-(trifluoromethyl)-1,2,4-oxadiazol-3-yl)pyridin-3-yl)imino)(4-(trifluoromethyl)phenyl)-λ^6-sulfanone]: above 70%.
With `COc1cccc(S(C)(=O)=Nc2ccc(-c3noc(C(F)(F)F)n3)nc2)c1` (stereo not drawn) [Compound 127, (3-methoxyphenyl)(methyl)((6-(5-(trifluoromethyl)-1,2,4-oxadiazol-3-yl)pyridin-3-yl)imino)-λ^6-sulfanone], the inhibition of growth at 300 ppm is above 70%.
Still for that read-out and setting: the same measure for `Cc1ccc(S(C)(=O)=Nc2ccc(-c3noc(C(F)(F)F)n3)cc2)cc1` (stereo not drawn) [Compound 130, methyl(p-tolyl)((4-(5-(trifluoromethyl)-1,2,4-oxadiazol-3-yl)phenyl)imino)-λ^6-sulfanone]: above 70%; for `CS(=O)(=NCc1cccc(-c2noc(C(F)(F)F)n2)c1)c1ccc(F)c(F)c1` (stereo not drawn) [Compound 141, (3,4-difluorophenyl)(methyl)((3-(5-(trifluoromethyl)-1,2,4-oxadiazol-3-yl)benzyl)imino)-sulfanone]: above 70%; for `CS(=O)(=NCc1cccc(-c2noc(C(F)(F)F)n2)c1)c1ccc(Cl)cc1` (stereo not drawn) [Compound 143, (4-chlorophenyl)(methyl)((3-(5-(trifluoromethyl)-1,2,4-oxadiazol-3-yl)benzyl)imino)-λ^6-sulfanone]: above 70%.
Still for that read-out and setting: the same measure for `CS(=O)(=NCc1cccc(-c2noc(C(F)(F)F)n2)c1)c1nccs1` (stereo not drawn) [Compound 144, methyl(thiazol-2-yl)((3-(5-(trifluoromethyl)-1,2,4-oxadiazol-3-yl)benzyl)imino)-λ^6-sulfanone]: above 70%.
The same measure, in the same setting: the same measure for `CS(=O)(=NCc1cccc(-c2noc(C(F)(F)F)n2)c1)c1ccc(F)cc1` (stereo not drawn) [Compound 145, (4-fluorophenyl)(methyl)((3-(5-(trifluoromethyl)-1,2,4-oxadiazol-3-yl)benzyl)imino)-λ^6-sulfanone]: above 70%; for `CS(=O)(=NCc1cccc(-c2noc(C(F)(F)F)n2)c1)c1cc(F)ccc1Br` (stereo not drawn) [Compound 146, (2-bromo-5-fluorophenyl)(methyl)((3-(5-(trifluoromethyl)-1,2,4-oxadiazol-3-yl)benzyl)imino)-λ^6-sulfanone]: above 70%.
In the case of `CS(=O)(=NCc1cccc(-c2noc(C(F)(F)F)n2)c1)c1ccc(Br)cc1F` (stereo not drawn) [Compound 147, (4-bromo-2-fluorophenyl)(methyl)((3-(5-(trifluoromethyl)-1,2,4-oxadiazol-3-yl)benzyl)imino)-λ^6-sulfanone], the inhibition of growth at 300 ppm is above 70%.
The same measure, in the same setting: with `O=S1(=NCc2cccc(-c3noc(C(F)(F)F)n3)c2)CCOCC1` [Compound 149, 4-((3-(5-(trifluoromethyl)-1,2,4-oxadiazol-3-yl)benzyl)imino)-1,4λ^6-oxathiane 4-oxide] the figure was above 70%.
Consider `CC(C)S(=O)(=NCc1ccc(-c2noc(C(F)(F)F)n2)cc1)c1ccccc1` (stereo not drawn) [Compound 151, isopropyl(phenyl)((4-(5-(trifluoromethyl)-1,2,4-oxadiazol-3-yl)benzyl)imino)-λ^6-sulfanone], for which the inhibition of growth at 300 ppm is above 70%.
The same measure, in the same setting: the same measure for `CC(C)S(=O)(=NCc1ccc(-c2noc(C(F)(F)F)n2)cc1)c1ccc(Cl)cc1` (stereo not drawn) [Compound 152, (4-chlorophenyl)(isopropyl)((4-(5-(trifluoromethyl)-1,2,4-oxadiazol-3-yl)benzyl)imino)-λ^6-sulfanone]: above 70%; for `CS(=O)(=Nc1ccc(-c2noc(C(F)(F)F)n2)cc1F)c1ccccc1F` (stereo not drawn) [Compound 165, ((2-fluoro-4-(5-(trifluoromethyl)-1,2,4-oxadiazol-3-yl)phenyl)imino)(2-fluorophenyl)(methyl)-λ^6-sulfanone]: above 70%.
Same read-out and setting: with `CS(=O)(=Nc1ccc(-c2noc(C(F)(F)F)n2)cc1F)c1ccccc1` (stereo not drawn) [Compound 166, ((2-fluoro-4-(5-(trifluoromethyl)-1,2,4-oxadiazol-3-yl)phenyl)imino)(methyl)(phenyl)-λ^6-sulfanone] the figure was above 70%; with `CS(=O)(=Nc1ccc(-c2noc(C(F)(F)F)n2)cc1F)c1ccc(Cl)cc1` (stereo not drawn) [Compound 167, (4-chlorophenyl)((2-fluoro-4-(5-(trifluoromethyl)-1,2,4-oxadiazol-3-yl)phenyl)imino)(methyl)-λ^6-sulfanone], above 70%; with `CS(=O)(=Nc1ccc(-c2noc(C(F)(F)F)n2)cc1F)c1cccc(F)c1` (stereo not drawn) [Compound 169, ((2-fluoro-4-(5-(trifluoromethyl)-1,2,4-oxadiazol-3-yl)phenyl)imino)(3-fluorophenyl)(methyl)-λ^6-sulfanone], above 70%.
Still for that read-out and setting: with `COc1ccc(S(C)(=O)=Nc2ccc(-c3noc(C(F)(F)F)n3)cc2F)cc1` (stereo not drawn) [Compound 171, ((2-fluoro-4-(5-(trifluoromethyl)-1,2,4-oxadiazol-3-yl)phenyl)imino)(4-methoxyphenyl)(methyl)-λ^6-sulfanone] the figure was above 70%; with `CS(=O)(=NCc1cccc(Cl)c1)c1ccc(-c2noc(C(F)(F)F)n2)cc1` (stereo not drawn) [Compound 182, ((3-chlorobenzyl)imino)(methyl)(4-(5-(trifluoromethyl)-1,2,4-oxadiazol-3-yl)phenyl)-λ^6-sulfanone], above 70%; with `CS(=O)(=NCc1ccc(F)cc1)c1ccc(-c2noc(C(F)(F)F)n2)cc1` (stereo not drawn) [Compound 183], above 70%.
Regarding `CS(=O)(=NCc1ccc(F)cc1F)c1ccc(-c2noc(C(F)(F)F)n2)cc1` (stereo not drawn) [Compound 184, ((2,4-difluorobenzyl)imino)(methyl)(4-(5-(trifluoromethyl)-1,2,4-oxadiazol-3-yl)phenyl)-λ^6-sulfanone], the inhibition of growth at 300 ppm is above 70%.
As for `CS(=O)(=NCc1cccc(F)c1)c1ccc(-c2noc(C(F)(F)F)n2)cc1` (stereo not drawn) [Compound 185, ((3-fluorobenzyl)imino)(methyl)(4-(5-(trifluoromethyl)-1,2,4-oxadiazol-3-yl)phenyl)-λ^6-sulfanone], the inhibition of growth at 300 ppm was above 70%.
